Consider 31 molecules from patent US9221809B2 (MERCK SHARP & DOHME CORP., priority 2011, dated 2015).

The target of this experiment is IRAK4 (Homo sapiens (Human), UniProt Q9NWZ3). Nature of the experiment: IRAK4 kinase activity, IMAP fluorescence polarization assay. In kind it is biochemical. The note with it: 100 μM ATP; read-out: IRAK4 IC50. In outline: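 Fluorescence polarization (IMAP nanoparticle binding of phosphopeptide) reports activity after a 30 min, 25 °C reaction. Conditions: 100 μM ATP, 0.5 nM GST-IRAK4, 100 nM fluorescent peptide, 10 mM Tris pH 7.2, 1 mM MgCl2, 1 mM DTT, 0.01% Tween 20.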

SMILES strings stand for the structures. pIC50: −log10 of the molar value.

Sequence of IRAK4 (Q9NWZ3 whole entry): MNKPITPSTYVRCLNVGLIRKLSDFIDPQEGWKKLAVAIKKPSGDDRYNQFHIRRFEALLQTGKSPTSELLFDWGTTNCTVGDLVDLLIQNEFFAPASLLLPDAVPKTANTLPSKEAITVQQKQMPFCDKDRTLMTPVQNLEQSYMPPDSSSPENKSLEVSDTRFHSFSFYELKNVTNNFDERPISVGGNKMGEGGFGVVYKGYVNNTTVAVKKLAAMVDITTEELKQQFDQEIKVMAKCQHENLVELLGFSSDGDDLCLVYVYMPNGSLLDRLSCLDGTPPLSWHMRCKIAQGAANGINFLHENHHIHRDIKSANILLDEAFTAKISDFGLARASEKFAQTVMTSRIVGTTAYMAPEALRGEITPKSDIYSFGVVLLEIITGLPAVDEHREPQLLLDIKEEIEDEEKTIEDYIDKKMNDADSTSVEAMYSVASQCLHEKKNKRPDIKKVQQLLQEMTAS

Consider `CC1CN(c2nc(N[C@@H]3CCCNC3)c(-c3nc4ccccc4s3)c(=O)[nH]2)CCO1` (stereo partly drawn) [Example 126, 5-(benzo[d]thiazol-2-yl)-2-(2-methylmorpholino)-6-((R)-piperidin-3-ylamino)pyrimidin-4(3H)-one], for which the negative-log IC50 (pIC50) was 7.01.
For `C[C@@H]1COCCN1c1nc(N[C@@H]2CCCNC2)c(-c2nc3ccccc3s2)c(=O)[nH]1` [Example 127], the pIC50 was 5.77.
In the case of `C[C@H]1COCCN1c1nc(N[C@@H]2CCCNC2)c(-c2nc3ccccc3s2)c(=O)[nH]1` [Example 128], the pIC50 was 6.37.
Regarding `O=c1[nH]c(N2CCOC(CCO)C2)nc(N[C@@H]2CCCNC2)c1-c1nc2ccccc2s1` (stereo partly drawn) [Example 129, 5-(benzo[d]thiazol-2-yl)-2-(2-(2-hydroxyethyl)morpholino)-6-((R)-piperidin-3-ylamino)pyrimidin-4(3H)-one], the pIC50 is 7.24.
Take `O=c1[nH]c(N2CCOC(C(F)(F)F)C2)nc(N[C@@H]2CCCNC2)c1-c1nc2ccccc2s1` (stereo partly drawn) [Example 130, 5-(benzo[d]thiazol-2-yl)-6-((R)-piperidin-3-ylamino)-2-(2-(trifluoromethyl)morpholino)pyrimidin-4(3H)-one]: the pIC50 is 6.70.
The result for `CC1(C)CN(c2nc(N[C@@H]3CCCNC3)c(-c3nc4ccccc4s3)c(=O)[nH]2)CCO1` [Example 131, (R)-5-(benzo[d]thiazol-2-yl)-2-(2,2-dimethylmorpholino)-6-(piperidin-3-ylamino)pyrimidin-4(3H)-one] reads 6.84.
The result for `O=c1[nH]c(N2CCN(c3ccccn3)CC2)nc(N[C@@H]2CCCNC2)c1-c1nc2ccccc2s1` [Example 132, (R)-5-(benzo[d]thiazol-2-yl)-6-(piperidin-3-ylamino)-2-(4-(pyridin-2-yl)piperazin-1-yl)pyrimidin-4(3H)-one] reads 8.10; that for `O=c1[nH]c(N2CCN(c3ncc(C(F)(F)F)cc3Cl)CC2)nc(N[C@@H]2CCCNC2)c1-c1nc2ccccc2s1` [Example 133, (R)-5-(benzo[d]thiazol-2-yl)-2-(4-(3-chloro-5-(trifluoromethyl)pyridin-2-yl)piperazin-1-yl)-6-(piperidin-3-ylamino)pyrimidin-4(3H)-one], 7.77; that for `O=c1[nH]c(N2CCN(c3cnccn3)CC2)nc(N[C@@H]2CCCNC2)c1-c1nc2ccccc2s1` [Example 134, (R)-5-(benzo[d]thiazol-2-yl)-6-(piperidin-3-ylamino)-2-(4-(pyrazin-2-yl)piperazin-1-yl)pyrimidin-4(3H)-one], 8.10.
On to `O=c1[nH]c(N2CCN(c3ccc(C(F)(F)F)cn3)CC2)nc(N[C@@H]2CCCNC2)c1-c1nc2ccccc2s1` [Example 135, (R)-5-(benzo[d]thiazol-2-yl)-6-(piperidin-3-ylamino)-2-(4-(5-(trifluoromethyl)pyridin-2-yl)piperazin-1-yl)pyrimidin-4(3H)-one], for which the pIC50 was 7.96.
Consider `O=c1[nH]c(N2CCN(c3ncccn3)CC2)nc(N[C@@H]2CCCNC2)c1-c1nc2ccccc2s1` [Example 136, (R)-5-(benzo[d]thiazol-2-yl)-6-(piperidin-3-ylamino)-2-(4-(pyrimidin-2-yl)piperazin-1-yl)pyrimidin-4(3H)-one], for which the pIC50 was 8.00.
For the molecule `O=c1[nH]c(N2CCN(c3cccc(Cl)n3)CC2)nc(N[C@@H]2CCCNC2)c1-c1nc2ccccc2s1` [Example 137, (R)-5-(benzo[d]thiazol-2-yl)-2-(4-(6-chloropyridin-2-yl)piperazin-1-yl)-6-(piperidin-3-ylamino)pyrimidin-4(3H)-one], the pIC50 is 7.60.
To `O=c1[nH]c(N2CCN(c3cccnc3)CC2)nc(N[C@@H]2CCCNC2)c1-c1nc2ccccc2s1` [Example 138, (R)-5-(benzo[d]thiazol-2-yl)-6-(piperidin-3-ylamino)-2-(4-(pyridin-3-yl)piperazin-1-yl)pyrimidin-4(3H)-one] belongs 8.22; to `Cc1nonc1N1CCN(c2nc(N[C@@H]3CCCNC3)c(-c3nc4ccccc4s3)c(=O)[nH]2)CC1` [Example 139, (R)-5-(benzo[d]thiazol-2-yl)-2-(4-(4-methyl-1,2,5-oxadiazol-3-yl)piperazin-1-yl)-6-(piperidin-3-ylamino)pyrimidin-4(3H)-one], 7.82; to `O=c1[nH]c(N2CCn3cc(C(F)(F)F)nc3C2)nc(N[C@@H]2CCCNC2)c1-c1nc2ccccc2s1` [Example 140, (R)-5-(benzo[d]thiazol-2-yl)-6-(piperidin-3-ylamino)-2-(2-(trifluoromethyl)-5,6-dihydroimidazo[1,2-a]pyrazin-7(8H)-yl)pyrimidin-4(3H)-one], 6.95.
To `COc1ccc(N2CCN(c3nc(N[C@@H]4CCCNC4)c(-c4nc5ccccc5s4)c(=O)[nH]3)CC2)nc1` [Example 141, (R)-5-(benzo[d]thiazol-2-yl)-2-(4-(5-methoxypyridin-2-yl)piperazin-1-yl)-6-(piperidin-3-ylamino)pyrimidin-4(3H)-one] belongs 8.30.
On to `COc1ccnc(N2CCN(c3nc(N[C@@H]4CCCNC4)c(-c4nc5ccccc5s4)c(=O)[nH]3)CC2)c1` [Example 142, (R)-5-(benzo[d]thiazol-2-yl)-2-(4-(4-methoxypyridin-2-yl)piperazin-1-yl)-6-(piperidin-3-ylamino)pyrimidin-4(3H)-one], for which the pIC50 is 8.22.
To `COc1cccc(N2CCN(c3nc(N[C@@H]4CCCNC4)c(-c4nc5ccccc5s4)c(=O)[nH]3)CC2)n1` [Example 143, (R)-5-(benzo[d]thiazol-2-yl)-2-(4-(6-methoxypyridin-2-yl)piperazin-1-yl)-6-(piperidin-3-ylamino)pyrimidin-4(3H)-one] belongs 8.00; to `O=c1[nH]c(N2CCN(c3ccc(Cl)cn3)CC2)nc(N[C@@H]2CCCNC2)c1-c1nc2ccccc2s1` [Example 144, (R)-5-(benzo[d]thiazol-2-yl)-2-(4-(5-chloropyridin-2-yl)piperazin-1-yl)-6-(piperidin-3-ylamino)pyrimidin-4(3H)-one], 8.10.
As to `O=c1[nH]c(N2CCN(c3cc(Cl)ccn3)CC2)nc(N[C@@H]2CCCNC2)c1-c1nc2ccccc2s1` [Example 145, (R)-5-(benzo[d]thiazol-2-yl)-2-(4-(4-chloropyridin-2-yl)piperazin-1-yl)-6-(piperidin-3-ylamino)pyrimidin-4(3H)-one], the pIC50 is 8.05.
To `O=c1[nH]c(N2CCN(c3ccccc3F)CC2)nc(N[C@@H]2CCCNC2)c1-c1nc2ccccc2s1` [Example 146, (R)-5-(benzo[d]thiazol-2-yl)-2-(4-(2-fluorophenyl)piperazin-1-yl)-6-(piperidin-3-ylamino)pyrimidin-4(3H)-one] belongs 7.80; to `CS(=O)(=O)c1ccc(N2CCN(c3nc(N[C@@H]4CCCNC4)c(-c4nc5ccccc5s4)c(=O)[nH]3)CC2)c(Cl)c1` [Example 147, (R)-5-(benzo[d]thiazol-2-yl)-2-(4-(2-chloro-4-(methylsulfonyl)phenyl)piperazin-1-yl)-6-(piperidin-3-ylamino)pyrimidin-4(3H)-one], 7.96; to `O=c1[nH]c(N2CCN(c3ccccc3C(F)(F)F)CC2)nc(N[C@@H]2CCCNC2)c1-c1nc2ccccc2s1` [Example 148, (R)-5-(benzo[d]thiazol-2-yl)-6-(piperidin-3-ylamino)-2-(4-(2-(trifluoromethyl)phenyl)piperazin-1-yl)pyrimidin-4(3H)-one], 7.35.
On to `O=c1[nH]c(N2CCN(c3nccs3)CC2)nc(N[C@@H]2CCCNC2)c1-c1nc2ccccc2s1` [Example 149, (R)-5-(benzo[d]thiazol-2-yl)-6-(piperidin-3-ylamino)-2-(4-(thiazol-2-yl)piperazin-1-yl)pyrimidin-4(3H)-one], for which the pIC50 is 7.92.
With `CS(=O)(=O)c1cc(F)ccc1N1CCN(c2nc(N[C@@H]3CCCNC3)c(-c3nc4ccccc4s3)c(=O)[nH]2)CC1` [Example 150, (R)-5-(benzo[d]thiazol-2-yl)-2-(4-(4-fluoro-2-(methylsulfonyl)phenyl)piperazin-1-yl)-6-(piperidin-3-ylamino)pyrimidin-4(3H)-one], the pIC50 was 7.85.
The result for `O=c1[nH]c(N2CCN(c3ccccc3Cl)CC2)nc(N[C@@H]2CCCNC2)c1-c1nc2ccccc2s1` [Example 151, (R)-5-(benzo[d]thiazol-2-yl)-2-(4-(2-chlorophenyl)piperazin-1-yl)-6-(piperidin-3-ylamino)pyrimidin-4(3H)-one] reads 7.57.
To `O=c1[nH]c(N2CCN(c3cccc(C(F)(F)F)c3)CC2)nc(N[C@@H]2CCCNC2)c1-c1nc2ccccc2s1` [Example 152, (R)-5-(benzo[d]thiazol-2-yl)-6-(piperidin-3-ylamino)-2-(4-(3-(trifluoromethyl)phenyl)piperazin-1-yl)pyrimidin-4(3H)-one] belongs 7.38; to `O=c1[nH]c(N2CCN(c3ccc(Cl)c(Cl)c3)CC2)nc(N[C@@H]2CCCNC2)c1-c1nc2ccccc2s1` [Example 153, (R)-5-(benzo[d]thiazol-2-yl)-2-(4-(3,4-dichlorophenyl)piperazin-1-yl)-6-(piperidin-3-ylamino)pyrimidin-4(3H)-one], 7.24.
With `COc1ccc(N2CCN(c3nc(N[C@@H]4CCCNC4)c(-c4nc5ccccc5s4)c(=O)[nH]3)CC2)cc1` [Example 154, (R)-5-(benzo[d]thiazol-2-yl)-2-(4-(4-methoxyphenyl)piperazin-1-yl)-6-(piperidin-3-ylamino)pyrimidin-4(3H)-one], the pIC50 was 8.00.
The result for `O=c1[nH]c(N2CCN(c3ccc4c(c3)OCO4)CC2)nc(N[C@@H]2CCCNC2)c1-c1nc2ccccc2s1` [Example 155, (R)-2-(4-(benzo[d][1,3]dioxol-5-yl)piperazin-1-yl)-5-(benzo[d]thiazol-2-yl)-6-(piperidin-3-ylamino)pyrimidin-4(3H)-one] reads 7.96; that for `CS(=O)(=O)c1ccccc1N1CCN(c2nc(N[C@@H]3CCCNC3)c(-c3nc4ccccc4s3)c(=O)[nH]2)CC1` [Example 156, (R)-5-(benzo[d]thiazol-2-yl)-2-(4-(2-(methylsulfonyl)phenyl)piperazin-1-yl)-6-(piperidin-3-ylamino)pyrimidin-4(3H)-one], 8.05.
